The results in this text go back to patent publication US20230001010A1, “COMPOSITIONS AND METHODS FOR TREATING AUTOIMMUNE DISORDERS” (The Regents of the University of Michigan, priority 2019, published 2023).

Data set [1] concerns experimental autoimmune encephalomyelitis (EAE). In words: Experimental autoimmune encephalomyelitis (EAE) mouse model, pathological score. In kind it is in vivo, C57BL/6 mice. Here is the method: (§1) HDL nanodisc was prepared as previously described. Briefly, DMPC was dissolved in chloroform, which was evaporated with nitrogen flow and under vacuum for at least 1 h. The resulting lipid film was hydrated in 10 mM sodium phosphate buffer and sonicated in a bath sonicator for 10 min. ApoA1 mimetic peptide 22A dissolved in endotoxin free water was added to the above mixture (22A:DMPC=1:2 weight ratio) to obtain nanodiscs. To load MOG antigen peptide in nanodiscs, each antigen peptide was reacted with 4-(4-maleimidophenyl)-butyric DOPE for 3 h in dimethylformamide (DMF), which was removed by freeze-drying after dilution 10× with endotoxin-free water. The lipid-peptide conjugates were dissolved in DMSO and added to pre-formed sHDL and incubated for 30 min at room temperature. Unreacted MOG peptides were removed by using Zeba Spin Desalting columns (Pierce) following the manufacturer's instructions. The conjugation efficiency of MOG peptide was determined by LC-MS and gel permeation chromatography (GPC). EAE was induced in female C57BL/6 mice by inoculation with 100 μg of MOG in complete Freund's adjuvant on day 0 following the administration of pertussis toxin. Mice were then injected subcutaneously at tail base for therapeutic study with sHDL-MOG, MOG or PBS on indicated days. Mice were weighed and scored daily based on the following guideline: 0, no sign of disease; 1, loss of tone in the tail; 2, hind limb paresis; 3, hind limb paralysis; 4, tetraplegia; and 5, moribund.
EAE-induced mice were administered s.c. with PBS or HDL-MOG on days 15, 22, and 29, and a subset of animals also received i.p. administration of […] to deplete Tregs at the specified time points (FIG. 13).
We examined the therapeutic potential of HDL-FTY720 in the EAE model. EAE was initiated as described above. Briefly, EAE was induced in mice as indicated above. Mice received i.p. administration of PBS or HDL-FTY720 (1 mg/kg) on days 14, 21, and 28. Mice were scored daily and assigned EAE scores as indicated above.

The nature of data set [2]: Antigen / drug loading efficiency in HDL nanodiscs (HPLC/MS). In kind it is physicochemical. The settings on record: for drug encapsulate efficiencies: drug in HDL nanodiscs, HPLC-MS; for loading efficiency in HDL: antigen / antigen-lipid conjugate loaded into HDL nanodiscs, HPLC/MS. Here is the method: as §1
To produce HDL nanodiscs carrying immunomodulatory drugs, 22A, and DMPC were dissolved in acetic acid and freeze-dried overnight as shown above. Drugs (FTY720, ITE, TSA, or SAHA) were dissolved in chloroform and added to lyophilized powder, followed by drying overnight in vacuum oven. Dried samples were rehydrated by 10 mM phosphate buffer. After three heat-cooling cycles, HDL-loaded with drugs were performed. The concentration of each drug was measured by HPLC-MS as shown for FTY720, ITE, TSA, or SAHA (FIGS. 14-17, respectively). Free drugs were used to generate standard curves. […] Samples were also analyzed by dynamic light scattering (DLS) for the particle sizes. […] We also analyzed HDL-FTY720 samples using gel permeation chromatography (GPC) (FIG. 19).
We synthesized HDL nanodiscs loaded with other CD4+ T cell epitopes for validation of our approach. We have synthesized phospholipids conjugated to either Ea chain 52-68 peptide (EA, ASFEAQGALANIAVDKA (SEQ ID NO: 831)), ovalbumin-II 323-339 peptide (OVA-II, ISQAVHAAHAEINEAGR (SEQ ID NO: 832)), and type-II collagen 250-270 peptide (CIA, […] (SEQ ID NO: 833)), each modified with CSS-peptide at N-terminus. Antigen-lipid conjugates were loaded into HDL nanodiscs as described above and analyzed by HPLC/MS and DLS. EA, OVA-II, and CIA peptides were conjugated to MPB-phospholipids with ˜95% conjugation efficiency (FIGS. 22-25). Antigen-lipid conjugates were efficiently loaded into HDL nanodiscs with ˜90%, ˜84%, and ˜78% loading efficiency for EA, OVA-II, and CIA peptides, respectively (FIGS. 22-25).

Data set [3] deals with bone marrow-derived dendritic cells (BMDCs). In words: Cellular uptake by BMDCs (confocal microscopy). In kind it is cell-based, C57BL/6 mice. The note with it: FITC-labelled antigen. The method, then:
To obtain bone marrow-derived dendritic cells (BMDCs), bone marrow was flushed from femurs and tibia bone of 5 to 6 weeks old C57BL/6 mice. Bone marrow cells were plated at 1×10^6 cells per dish in RPMI 1640 supplemented with 10% FBS, 55 μM β-mercaptoethanol, 5 ng/ml of GM-CSF, and 100 U/ml penicillin (BMDC media). On day three and five, one half of the culture media was replaced with fresh media. After 8 days, BMDCs were harvested and plated at 1×10^6 cells per well in 12-well plates.
(§2) Internalization of fluorescent HDL-MOG by BMDCs or microglia were visualized using confocal microscopy. BMDCs or microglia were seeded at 1×10^6 cells on 35 mm Petri dishes (MatTek) and incubated with the mixture of free CSS-MOG-K(FITC), or sHDL-CSS-MOG-K(FITC). Cells were then washed three times with PBS, fixed with 4% paraformaldehyde, washed, and permeabilized with 0.1% Triton-X solution. Actin filaments were stained with AlexaFluor 647-Phalloidin, MHC-II was stained with MHC-II-Texas red, and the nuclei were stained with DAPI. The samples were imaged using a 63× oil-immersion lens on a Nikon A-I spectral confocal microscope.

The test system of data set [4] is microglia. In words: Cellular uptake by microglia (confocal microscopy). In kind it is cell-based, C57BL6/J mice. The note with it: FITC-labelled antigen. Here is the method: Mixed glial cell cultures were harvested from the cerebral cortex of newborn (P0-2) C57BL6/J mice as described previously. Cortices and brain stem were separated, and the blood vessels and meninges were carefully isolated. Then, the tissues were digested by enzymatic dissociation (0.05% trypsin-EDTA and […] DNase I), washed two times with 1% BSA in PBS. Cells were resuspended in DMEM (10% FBS, 1% penicillin/streptomycin, 0.5 mM 2-mercaptoethanol). Mixed glial cells were cultured in poly-D-lysine-coated flasks and grown at 37° C. and 5% CO2. After 10 days, microglia cells were isolated from the underlying astrocytic layer by shaking of the flask. The cell culture contained more than 95% microglial (CD11 b+, CD45+) cells as analyzed by flow cytometry.
as §2

The nature of data set [5]: Lymph node draining / biodistribution of TMR-labelled antigen after s.c. administration. The note with it: naive mice, after one day. In kind it is in vivo, C57BL/6 mice. Here is the method: Tetramethylrhodamine (TMR, excitation/emission ˜540/560 nm) modified MOG peptide (CSSGWYRSPFSRVVHL-TMR, MOG-TMR SEQ ID NO: 829) was prepared by reacting TMR-NHS and MOG peptide according to the manufacturer's instruction. MOG-TMR was purified using HPLC and reacted with DOPE-MAL in DMF to produce DOPE-Mal-MOG-TMR (MOG-TMR). Next, the DMF solution was diluted with water, freeze-dried, dissolved in DMSO, and added to previously made HDL to produce HDL-MOG-TMR. Conjugation of MOG-TMR to DOPE-MAL and incorporation of MOG-TMR in HDL were measured by HPLC/MS, as indicated above. For the lymph node draining studies, naive female C57BL/6 mice or EAE-induced mice were administered s.c. at tail base with HDL-MOG-TMR or free MOG-TMR containing antigen peptide (100 μg per mouse) in 100 μl volume. After 24, 96, and 196 hr, animals were euthanized, organs were harvested, and TMR signal was measured with an IVIS optical imaging system (Caliper Life Sciences). Inguinal lymph nodes and spinal cord were cut into small pieces and passed through a 70-μm cell strainer, washed two times, and stained with the indicated antibodies, followed by flow cytometry analysis.

A value given as a limit tells only on which side of the number the result lay.

Take `CCCCCCCCc1ccc(CCC(N)(CO)CO)cc1` [FTY720, Fingolimod]: the EAE score in data set [1] (FTY720 0.3 mg/Kg oral daily for 30 days starting day 30) is given as 3; in data set [1] (FTY720 1 mg/Kg oral daily for 30 days starting day 30) it was 1; in data set [1] (treatment started day 15: HDL-MOG s.c. days 15, 22, 29, followed 85 days, FTY720 oral daily for 30 days), “above 2”. For the same molecule, the “day by which mice had to be euthanized after treatment stopped” value in data set [1] (FTY720 oral daily for 30 days starting day 15) is at most 55 days; in data set [1] (FTY720 oral daily for 30 days starting day 30) it was at most 90 days.
Regarding `COC(=O)c1csc(C(=O)c2c[nH]c3ccccc23)n1` [ITE, 2-(1′H-indole-3′-carbonyl)-thiazole-4-carboxylic acid methyl ester], the drug encapsulate efficiencies in data set [2] is on record as around 95%.
The molecule `O=C(CCCCCCC(=O)Nc1ccccc1)NO` [SAHA, Suberoylanilide hydroxamic acid] came in with a drug encapsulate efficiencies in data set [2] of around 100%.
Still for that read-out and setting: for `CC(/C=C/C(=O)NO)=C\[C@@H](C)C(=O)c1ccc(N(C)C)cc1` [TSA, Trichostatin A] the value was around 80%.
Turning to “ASFEAQGALANIAVDKA [Ea chain 52-68 peptide, modified with CSS-peptide at N-terminus]”, in data set [2], the “loading efficiency in HDL” value is on record as around 90%.
Consider CSS-MOG-K(FITC) [MOG-FITC], for which the “internalization by BMDCs” value in data set [3] was “minimal signal”. Moreover, the internalization by microglia result in data set [4] is reported as “minimal signal”.
Take CSSGWYRSPFSRVVHL-TMR [MOG-TMR]: in data set [5], the “TMR signal in inguinal dLNs” value was “minimal TMR signal”.
Take “GPKGQTGKPGIAGFKGEQGPK [CIA, type-II collagen 250-270 peptide, modified with CSS-peptide at N-terminus]”: the “loading efficiency in HDL” value in data set [2] is on record as around 78%.
Still for that read-out and setting: for “ISQAVHAAHAEINEAGR [OVA-II, ovalbumin-II 323-339 peptide, modified with CSS-peptide at N-terminus]” the value was around 84%.
